Key:
[1] = test system: EL-4 leukemic cells; experiment: Test 3: In-Vitro Test of Inhibition of Growth of Cancer Cell by Macrophage; type: cell-based; conditions: 8 mg/Kg intraperitoneal to mice, macrophages collected after 4 days, with EL-4 cells; control 80.2
Method: The results of the test of the action of the effective ingredient of the present invention on the macrophage will now be described with reference to the following Test 3. More specifically, the separated macrophage and EL-4 leukemic cell were mixed and cultured, and ^3 H-thymidine was added to a culture medium and the quantity of ^3 H-thymidine incorporated into the EL-4 cell was determined to examine the activity of the macrophage. When the macrophage is activated by administration of the effective ingredient of the present invention, inhibition of the growth of EL-4 cell, that is, phagocytosis of the cancer cell by the macrophage, is observed. Accordingly, if the take-in amount of ^3 H-thymidine is measured and this amount is reduced, it is confirmed that the macrophage has been activated. […] The dose was 8 mg per Kg of the body weight. To the control group, a physiological saline solution was similarly administered. After passage of 4 days, exuded abdominal cells were collected and deposited on a plastic Petri dish to collect microphages. Then, 1×10^6 of so obtained macrophages and 1×10^5 of EL-4 leukemic cells of C57 BL/6J mouse were mixed with cultured in an RPM1 1640 culture medium to which 10% of bovine embryo serum was added (at 37° C. in the presence of 5% of CO2) for 24 hours. Then, 0.1μ Ci of ^3 H-thymidine was added and culturing was further conducted for 16 hours. Cells were collected on a filter paper from the culture medium and the amount of ^3 H-thymidine taken in was determined by a liquid scintillation counter. […] For comparison, the test was similarly carried out by using Levamisol hydrochloride. Results

[2] = test system: Sarcoma 180; experiment: Test 5: Test of Carcinostatic Effect to Sarcoma 180 by Subcutaneous Administration; type: in vivo, ICR female mice; conditions: 20 mg/Kg subcutaneous
Method: To the control group, a physiological saline solution was similarly administered. […] The diameter D (mm) of the tumor was measured, and the average value and the number N of the living mice were determined to obtain results shown in Table 4.

[3] = test system: adjuvant arthritis; experiment: Test 2: Adjuvant Arthritis Test; type: in vivo, SD male rats; conditions: rat, 5 mg/Kg subcutaneous, 9 times, left hind leg, * P<0.05, ** P<0.01
[4] = test system: delayed hypersensitivity; experiment: Test 1: Test of Reinforcement of Delayed Hypersensitivity; type: in vivo, ICR male mice; conditions: mouse, 50 mg/Kg oral, 24 hours after challenge; * P<0.05, ** P<0.01; control 29.6 ± 1.9
Text: Various test systems using animals have been proposed for determining the immunopotensiative action. Results of the test of reinforcement of the delayed hypersensitivity, which is a typical test among these tests, will now be described.
This system was used for the test of reinforcement of the delayed hypersensitivity.
One groups of eight ICR male mice, each having a body weight of about 30 g, were used for the test.
Sensitization was effected by coating a 7% solution of picryl chloride in a 4/1 mixture of olive oil and acetone on the shaved abdomen of the mouse.
Simultaneously with sensitization, a solution or suspension of the compound of the present invention in a 0.2% solution of carboxymethyl cellulose in a physiological saline solution was orally administered to the mouse at a dose of 50 mg per Kg of the body weight. To the control group, a 0.2% carboxymethyl cellulose solution in a physiological saline solution was similarly administered.
The delayed hypersensitivity was challenged 7 days after sensitization by gripping the ear of the mouse by a forceps wrapped with a felt impregnated with a 1% solution of picryl chloride in olive oil and coating the ear with the solution. The thickness of the ear was measured before challenging and 24 hours after challenging and the ratio of increase of the thickness (average value of both the ears in eight mice±standard deviation) was obtained as shown in Table 1.
For comparison, the test was similarly carried out by using Levamisol hydrochloride, and the obtained results are shown in Table 1. F.t tests were carried out. The group in which the test result was significant at a level of P<0.05 was marked by *, and the group in which the test result was significant at a level of P<0.01 ws marked by **.

[5] = test system: Sarcoma 180; experiment: Test 4: Test of Antitumor Effect to Sarcoma 180 by Oral Administration; type: in vivo, ICR female mice; conditions: for N: number of living mice: 100 mg/Kg oral; for D: average diameter of tumor: 100 mg/Kg oral once a day, 10 days
Method: To the control group, a physiological saline solution was similarly administered. The dose of the compound was 100 mg per Kg of the body weight. The diameter D (mm) of the tumor was measured, and the average value and the number N of the living mice were determined to obtain results shown in Table 4.

SMILES: CN1CCN(C(=O)N2CCCCC2)CC1 [drawing 14]
- Take-In Ratio of 3H-thymidine (average value) [1]: 22.6%

SMILES: CN1CCN(C(=O)N2CCCC2)CC1 [drawing 19]
- N: number of living mice ([2]; 0 weeks, control 6): 6
- N: number of living mice ([2]; 2 weeks, control 6): 6
- D: average diameter of tumor ([2]; 2 weeks, control 10.8): 2.2 mm
- N: number of living mice ([2]; 4 weeks, control 6): 6
- D: average diameter of tumor ([2]; 4 weeks, control 16.6): 3.6 mm
- N: number of living mice ([2]; 6 weeks, control 6): 6
- D: average diameter of tumor ([2]; 6 weeks, control 20.3): 6.1 mm
- N: number of living mice ([2]; 8 weeks, control 4): 6
- D: average diameter of tumor ([2]; 8 weeks, control 31.2): 1.2 mm
- N: number of living mice ([2]; 10 weeks, control 1): 5
- D: average diameter of tumor ([2]; 10 weeks, control 40.5): 0 mm

SMILES: CN1CCN(C(=O)N2CCCCC2)CC1 [drawing 11]
- Swelling Ratio (average value ± standard variation) ([3]; 15 days, control 84.4 ± 9.0): 49.4 ± 10.3%
- Swelling Ratio (average value ± standard variation) ([3]; 18 days, control 103.2 ± 9.7): 62.0 ± 12.5%
- Swelling Ratio (average value ± standard variation) ([3]; 21 days, control 107.5 ± 13.3): 68.1 ± 14.0%

SMILES: CN1CCN(C(=O)N2CCCC2)CC1 [drawing 7]
- Ratio of Increase of Ear Thickness (average value ± Standard Variation) [4]: 36.7 ± 2.5%

SMILES: CN1CCN(C(=O)N2CCCCC2)CC1 [drawing 20]
- N: number of living mice ([2]; 0 weeks, control 6): 6
- N: number of living mice ([2]; 2 weeks, control 6): 6
- D: average diameter of tumor ([2]; 2 weeks, control 10.8): 1.6 mm
- N: number of living mice ([2]; 4 weeks, control 6): 6
- D: average diameter of tumor ([2]; 4 weeks, control 16.6): 3.7 mm
- N: number of living mice ([2]; 6 weeks, control 6): 6
- D: average diameter of tumor ([2]; 6 weeks, control 20.3): 5.7 mm
- N: number of living mice ([2]; 8 weeks, control 4): 6
- D: average diameter of tumor ([2]; 8 weeks, control 31.2): 0.8 mm
- N: number of living mice ([2]; 10 weeks, control 1): 6
- D: average diameter of tumor ([2]; 10 weeks, control 40.5): 0 mm

SMILES: CN1CCN(C(=O)N2CCCC2)CC1 [drawing 16]
- N: number of living mice ([5]; 0 weeks, control 6): 6
- D: average diameter of tumor ([5]; 2 weeks, control 10.6): 7.7 mm
- N: number of living mice ([5]; 2 weeks, control 6): 6
- D: average diameter of tumor ([5]; 4 weeks, control 15.2): 6.3 mm
- N: number of living mice ([5]; 4 weeks, control 6): 6
- D: average diameter of tumor ([5]; 6 weeks, control 22.4): 5.5 mm
- N: number of living mice ([5]; 6 weeks, control 6): 6
- D: average diameter of tumor ([5]; 8 weeks, control 31.5): 4.7 mm
- N: number of living mice ([5]; 8 weeks, control 5): 6
- D: average diameter of tumor ([5]; 10 weeks, control 37.6): 0 mm
- N: number of living mice ([5]; 10 weeks, control 1): 6

SMILES: O=C(N1CCCCC1)N1CCN(c2ccccc2)CC1 [drawing 12]
- Swelling Ratio (average value ± standard variation) ([3]; 15 days, control 84.4 ± 9.0): 39.5 ± 11.7%
- Swelling Ratio (average value ± standard variation) ([3]; 18 days, control 103.2 ± 9.7): 56.1 ± 10.8%
- Swelling Ratio (average value ± standard variation) ([3]; 21 days, control 107.5 ± 13.3): 74.4 ± 13.9%

SMILES: O=C(N1CCCCC1)N1CCN(c2ccccc2)CC1 [drawing 18]
- N: number of living mice ([5]; 0 weeks, control 6): 6
- D: average diameter of tumor ([5]; 2 weeks, control 10.6): 6.2 mm
- N: number of living mice ([5]; 2 weeks, control 6): 6
- D: average diameter of tumor ([5]; 4 weeks, control 15.2): 3.8 mm
- N: number of living mice ([5]; 4 weeks, control 6): 6
- D: average diameter of tumor ([5]; 6 weeks, control 22.4): 4.4 mm
- N: number of living mice ([5]; 6 weeks, control 6): 6
- D: average diameter of tumor ([5]; 8 weeks, control 31.5): 5.3 mm
- N: number of living mice ([5]; 8 weeks, control 5): 6
- D: average diameter of tumor ([5]; 10 weeks, control 37.6): 0 mm
- N: number of living mice ([5]; 10 weeks, control 1): 6

From patent US4420481A, “Use of piperazine compounds as immunopotentiating agents” (Mitsuitoatsu Chemicals Inc., priority 1980, dated 1983)
